Results on one compound are retold here after patent US20040186129A1, “2-Aroylimidazole compounds for treating cancer” (priority 2001, published 2004).

The subject of experiment [1] is MDR cell lines (MES-SA/DX5, HL-60/TX1000). Nature of the experiment: In vitro anti-cancer activity, summary over both MDR cell lines. Type of experiment: cell-based, human. Particulars: MES-SA/DX5 and HL-60/TX1000, in words. The procedure: (§1) The cell lines were maintained in RPMI1640(GIBCO) supplemented with 10% FCS, 100 units/ml penicillin, 100 ug/ml streptomycin, and 2 mM L-glutamine. The cells were split every third day and diluted to a concentration of 2×10^5 cells/ml one day before experiment. All experiments were performed on exponentially growing cell culture. Cell densities were 2.5×10^4 cells/ml in all experiment.
(§2) A stock solution of Compound (1) was prepared by dissolving the compound at a concentration of 1 mM in 100% DMSO. Final concentrations were obtained by diluting the stock solution directly into the tissue culture medium. Cells were incubated with varying concentrations of the compounds for 72 hours and the IC50 was determined by MTS (i.e. […]) assay. IC50 stands for the concentration of compound required to inhibit 50% tumor cell growth.
In vitro activity was determined in two MDR (Multi Drug Resistant) human cancer cell lines. HL-60/TX1000 was isolated in vitro by subculturing HL-60 in progressively higher concentration of Taxol. HL-60/TX1000 cells over-express mdr-1 mRNA and p-glycoprotein, as determined by western blot and immunofluorescence labeling with antiPGP antibodies. The cell is cross-resistant to Taxol, Vincristine, Adriamycin, Etoposide and Doxorubicin. […]

Experiment [2] has as its system p388. Nature of the experiment: In vitro anti-cancer activity, MTS assay, 72 hours. Type of experiment: cell-based, murine. Particulars: Mus musculus, p388, 72 hours. The protocol:
(§3) The in vitro activity of the compounds was determined in the following seven human cancer cell lines. MDA435 (human breast cancer), MIP10 (human colon cancer), HL-60 (human myeloid leukemia), U937 (human leukemia), p388 (murine leukemia), DU-145 (human prostate cancer), MES-SA (human uterine sarcoma) were obtained from ATCC (American Type of Culture Collection).
as §1, §2
A general note: Tetrazolium dyes change colour on reduction, which living cells bring about.

Experiment [3] deals with DU-145. Nature of the experiment: In vitro anti-cancer activity, MTS assay, 72 hours. Type of experiment: cell-based. Particulars: Homo sapiens, DU-145, 72 hours. The protocol:
as §3, §1, §2

The test system of experiment [4] is MDA-435. Nature of the experiment: In vitro anti-cancer activity, MTS assay, 72 hours. The format is cell-based. Particulars: Homo sapiens, MDA435, MDA-435, 72 hours. The procedure:
as §3, §1, §2

In experiment [5] the test system is MES-SA. Nature of the experiment: In vitro anti-cancer activity, MTS assay, 72 hours. Type of experiment: cell-based. Particulars: Homo sapiens. The protocol:
as §3, §1, §2

Experiment [6] has as its system H2. Nature of the experiment: In vitro anti-cancer activity, MTS assay, 72 hours. The format is cell-based. Particulars: Homo sapiens, H2, 72 hours. The protocol:
as §3, §1, §2

For experiment [7], the system named is HL-60. Nature of the experiment: In vitro anti-cancer activity, MTS assay, 72 hours. Particulars: Homo sapiens, HL-60, 72 hours. Type of experiment: cell-based. The procedure: as §3, §1, §2
In experiment [8] the test system is MES-SA/DX5. Nature of the experiment: In vitro anti-cancer activity against multi-drug resistant cancer cells, MTS assay. The format is cell-based. Particulars: Homo sapiens, MES-SA/Dx5; MES-SA/DX-5, Table 2; read-out: IC50. The procedure: as §1, §2
(§4) In vitro activity was determined in two MDR (Multi Drug Resistant) human cancer cell lines. HL-60/TX1000 was isolated in vitro by subculturing HL-60 in progressively higher concentration of Taxol. HL-60/TX1000 cells over-express mdr-1 mRNA and p-glycoprotein, as determined by western blot and immunofluorescence labeling with antiPGP antibodies. The cell is cross-resistant to Taxol, Vincristine, Adriamycin, Etoposide and Doxorubicin. MES-SA/Dx5 was established in the presence of increasing concentrations of Doxorubicin. […] MES-SA/Dx5 was purchased from ATCC.
(§5) The procedure for culturing the cells and assaying cancer cell growth inhibition were as described in Example 12.
(§6) The protocol described in Examples 12-13 was used to assay inhibition by Compound (2)-(12) on the growth of the multidrug resistant cancer cell line MES-SA/DX5 and HL-60/TX1000.

Experiment [9] has as its system HL-60/TX1000. The experiment is described as above. Type of experiment: cell-based. Particulars: Homo sapiens, HL60/TX1000; HL-60/TX1000, Table 2; read-out: IC50. The procedure:
as §1, §2, §4, §5, §6

The test system of experiment [10] is seven cancer cell lines. Nature of the experiment: In vitro anti-cancer activity, summary over seven cancer cell lines. The format is cell-based. Particulars: range over the seven cell lines of Table 1; read-out: IC50 against seven cancer cell lines. The protocol:
as §3, §1, §2

Experiment [11] concerns A549. Nature of the experiment: In vitro anti-cancer activity, MTS assay, 72 hours. Type of experiment: cell-based. Particulars: Homo sapiens, A549, 72 hours.

One may read the IC50 as the concentration that gives 50% inhibition. In the case of `O=C(c1nc2cnccc2[nH]1)c1cn(Cc2ccc(Cl)cc2)c2ccccc12` [Compound (1)], the “anti-cancer activity against MDR cancer cell lines” value in experiment [1] is recorded as “high anti-cancer activity”. The IC50 amounted to 50 nM in experiment [2]; 50 nM in [3]; 50 nM in [4]; 10 nM in experiment [5]; 50 nM in experiment [6]; 50 nM in experiment [7]. In addition, the IC50 in experiment [8] was 50 nM; in experiment [9] it was 50 nM; in experiment [10] it was 10 to 50 nM; in experiment [11], 50 nM.
